Measurements taken from DBAASP.
≈ marks a conversion by molar mass, not a printed value. Values belong to the compound of their own block, whether it stands above or below them.

Experiments:
Assay in all cases: ≥ marks a high value that may be exact or a test limit, other limits are often not marked, values filed in µg/mL are converted to µM
[1] = system: Klebsiella aerogenes ATCC 13048
[2] = system: Klebsiella pneumoniae ATCC 700603
[3] = system: Lacticaseibacillus casei ATCC 334
[4] = system: Listeria monocytogenes ATCC 7611
[5] = system: Micrococcus luteus ATCC 14452
[6] = system: Saccharomyces cerevisiae ATCC 204508
[7] = system: Staphylococcus aureus ATCC 29213
Escherichia coli 078 = system: Escherichia coli 078
[8] = system: Escherichia coli ATCC 25922
Escherichia coli UB1005 = system: Escherichia coli UB1005
[9] = system: Lacticaseibacillus rhamnosus 7469
[10] = system: Pseudomonas aeruginosa ATCC 27853
[11] = system: Salmonella enterica subsp. enterica serovar Pullorum ATCC 7913
[12] = system: Salmonella enterica subsp. enterica serovar Typhimurium ATCC 14028
[13] = system: Salmonella enterica subsp. enterica serovar Typhimurium C77-31
[14] = system: Staphylococcus aureus ATCC 25923
[15] = system: Staphylococcus epidermidis ATCC 12228
[16] = system: Streptococcus agalactiae CICC 10465
Streptococcus agalactiae = system: Streptococcus agalactiae
[17] = system: Streptococcus thermophilus YM-C
[18] = system: Bacillus subtilis CMCC 63501
[19] = system: Escherichia coli CICC 10670
[20] = system: Listeria monocytogenes ATCC 19115
[21] = system: Staphylococcus aureus ATCC 6538
[22] = system: Acinetobacter baumannii ATCC 19606
[23] = system: Candida albicans ATCC 90028
[24] = system: Cryptococcus neoformans ATCC 208821
[25] = system: Staphylococcus aureus ATCC 43300
[26] = system: Staphylococcus aureus SH1000
Escherichia coli TOP 10 = system: Escherichia coli TOP 10
Escherichia coli = system: Escherichia coli
[27] = system: Staphylococcus aureus ATCC BAA-1683
[28] = system: Escherichia coli D31 CGSC 5165
[29] = system: Pseudomonas aeruginosa ATCC 47085
[30] = system: Staphylococcus aureus ATCC 35556
Bacillus subtilis = system: Bacillus subtilis
Candida albicans SC5314 = system: Candida albicans SC5314
[31] = system: Escherichia coli BNCC 133264
Listeria monocytogenes = system: Listeria monocytogenes
[32] = system: Pseudomonas aeruginosa BNCC 125486
[33] = system: Staphylococcus aureus ATCC 2592
[34] = system: Staphylococcus aureus BNCC 186335
Staphylococcus aureus = system: Staphylococcus aureus

- MIC [1]: ≥ 256 µM
- MIC [2]: > 256 µM
- MIC [3]: ≥ 256 µM
- MIC [4]: 8 µM (≈ 15 µg/mL)
- MIC [5]: 7.5 µM (≈ 14.1 µg/mL)
- MIC [6]: ≥ 32 µM
- MIC [7]: 3.5 µM (≈ 6.56 µg/mL)
SMILES: CC[C@H](C)[C@H](NC(=O)[C@H](CC(C)C)NC(=O)[C@H](C)NC(=O)[C@H](Cc1ccccc1)NC(=O)[C@H](C)N)C(=O)N[C@@H](C)C(=O)NCC(=O)N[C@@H](C)C(=O)N[C@@H](CC(C)C)C(=O)N[C@@H](Cc1ccc(O)cc1)C(=O)N[C@@H](CCCN=C(N)N)C(=O)N[C@H](C(=O)N[C@@H](Cc1ccccc1)C(=O)N[C@@H](Cc1cnc[nH]1)C(=O)N[C@@H](CCCN=C(N)N)C(=O)N[C@@H](CCCN=C(N)N)C(=O)O)[C@@H](C)CC [AFALIAGALYRIFHRR]

- MIC (Escherichia coli 078): ≥ 64 µM
- MIC [8]: > 64 µM
- MIC (Escherichia coli UB1005): ≥ 64 µM
- MIC [9]: ≥ 64 µM
- MIC [10]: > 64 µM
- MIC [11]: ≥ 64 µM
- MIC [12]: > 64 µM
- MIC [13]: ≥ 64 µM
- MIC [14]: > 64 µM
- MIC [7]: > 64 µM
- MIC [15]: > 64 µM
- MIC [16]: 4 µM (≈ 7.75 µg/mL)
- MIC (Streptococcus agalactiae): 4 µM (≈ 7.75 µg/mL)
- MIC [17]: ≥ 64 µM
SMILES: CC[C@H](C)[C@H](NC(=O)[C@H](CC(C)C)NC(=O)[C@@H](NC(=O)[C@@H](N)CC(=O)O)[C@@H](C)CC)C(=O)N[C@H](C(=O)N[C@H](C(=O)NCC(=O)NCC(=O)N[C@@H](CCCCN)C(=O)N[C@@H](CCC(=O)O)C(=O)N[C@@H](CCCN=C(N)N)C(=O)N[C@@H](CCCCN)C(=O)N[C@@H](CCCCN)C(=O)N[C@@H](CCCN=C(N)N)C(=O)N[C@@H](CCCN=C(N)N)C(=O)N[C@@H](CCCN=C(N)N)C(N)=O)C(C)C)[C@@H](C)CC [DILIIVGGKERKKRRR]

- MIC [18]: 5 µM (≈ 9.44 µg/mL)
- MIC [19]: 2.5 µM (≈ 4.72 µg/mL)
- MIC [20]: 2.5 µM (≈ 4.72 µg/mL)
- MIC [12]: 5 µM (≈ 9.44 µg/mL)
- MIC [21]: 2.5 µM (≈ 4.72 µg/mL)
SMILES: CC[C@H](C)[C@H](NC(=O)CN)C(=O)N[C@H](C(=O)N[C@@H](CC(=O)O)C(=O)N[C@@H](CC(C)C)C(=O)N[C@@H](CCCN=C(N)N)C(=O)NCC(=O)N[C@@H](CCSC)C(=O)N[C@@H](CC(C)C)C(=O)N[C@@H](CCCCN)C(=O)N[C@@H](CCCN=C(N)N)C(=O)N[C@@H](CC(C)C)C(=O)N[C@@H](CCCCN)C(=O)N[C@@H](CCCCN)C(=O)N[C@@H](CCSC)C(=O)N[C@@H](CCCCN)C(=O)O)[C@@H](C)O [GITDLRGMLKRLKKMK]

- MIC [22]: > 20 µM
- MIC [23]: 20 µM (≈ 32 µg/mL)
- MIC [24]: 20 µM (≈ 32 µg/mL)
- MIC [8]: > 20 µM
- MIC [2]: > 20 µM
- MIC [10]: > 20 µM
- MIC [25]: > 20 µM
- MIC [26]: ≥ 50 µM
SMILES: CC[C@H](C)[C@H](NC(=O)[C@H](CC(=O)O)NC(=O)[C@H](Cc1ccccc1)NC(=O)[C@H](CC(C)C)NC(=O)CN)C(=O)N[C@H](C(=O)N[C@@H](CCCCN)C(=O)N[C@@H](CCCCN)C(=O)N[C@H](C(=O)N[C@H](C(=O)N[C@@H](CCCCN)C(=O)N[C@@H](CC(C)C)C(=O)N[C@@H](CC(C)C)C(=O)N[C@@H](CCCCN)C(N)=O)C(C)C)C(C)C)C(C)C [GLFDIVKKVVKLLK]

- MIC (Escherichia coli TOP 10): 1.45 µM (≈ 3.1 µg/mL)
SMILES: CC[C@H](C)[C@H](NC(=O)[C@H](CCCCN)NC(=O)[C@H](CO)NC(=O)[C@H](Cc1ccccc1)NC(=O)[C@H](CC(C)C)NC(=O)[C@H](CCCCN)NC(=O)[C@H](CCCCN)NC(=O)[C@H](CC(C)C)NC(=O)CN)C(=O)N[C@@H](CCCCN)C(=O)N[C@H](C(=O)N[C@H](C(=O)NCC(=O)N[C@@H](CO)C(=O)N[C@@H](C)C(=O)N[C@@H](CC(C)C)C(=O)N[C@@H](CCCCN)C(=O)N[C@@H](CC(N)=O)C(=O)N[C@@H](CC(C)C)C(=O)N[C@@H](C)C(N)=O)[C@@H](C)CC)[C@@H](C)CC [GLKKLFSKIKIIGSALKNLA]

- MIC (Escherichia coli): 386 µM (≈ 500 µg/mL)
- MIC [27]: ≥ 386 µM
SMILES: CC(C)C[C@H](NC(=O)[C@H](CC(C)C)NC(=O)[C@H](CC(C)C)NC(=O)[C@H](CC(C)C)NC(=O)[C@H](CCCCN)NC(=O)[C@H](CCCCN)NC(=O)[C@H](CCCCN)NC(=O)[C@@H](N)CCCCN)C(=O)N[C@@H](CCCN=C(N)N)C(=O)N[C@@H](CCCN=C(N)N)C(N)=O [KKKKLLLLRR]

SMILES: CC[C@H](C)[C@H](NC(=O)[C@H](CCCCN)NC(=O)CNC(=O)[C@H](CC(C)C)NC(=O)[C@@H](NC(=O)[C@H](C)NC(=O)[C@H](CCCCN)NC(=O)CNC(=O)[C@H](C)NC(=O)CNC(=O)[C@H](CCCCN)NC(=O)[C@H](CCSC)NC(=O)[C@H](CCCCN)NC(=O)[C@@H](NC(=O)[C@H](Cc1c[nH]c2ccccc12)NC(=O)[C@H](CC(C)C)NC(=O)[C@H](CCC(=O)O)NC(=O)[C@H](CCCCN)NC(=O)[C@H](CC(C)C)NC(=O)[C@@H](N)CC(C)C)[C@@H](C)O)C(C)C)C(=O)N[C@@H](CCCCN)C(=O)NCC(=O)N[C@@H](CC(C)C)C(=O)N[C@@H](CC(C)C)C(=O)O [LLKELWTKMKGAGKAVLGKIKGLL]
- MIC [22]: 1 µM (≈ 2.6 µg/mL)
- MIC [28]: 0.94 µM (≈ 2.44 µg/mL)
- MIC [29]: 15 µM (≈ 38.9 µg/mL)
- MIC [30]: 15 µM (≈ 38.9 µg/mL)

- MIC (Bacillus subtilis): 9.2 µM (≈ 18.7 µg/mL)
- MIC (Candida albicans SC5314): 4.6 µM (≈ 9.35 µg/mL)
- MIC [8]: 4.6 µM (≈ 9.35 µg/mL)
- MIC [31]: 0.984 µM (≈ 2 µg/mL)
- MIC (Escherichia coli): 7.87 µM (≈ 16 µg/mL)
- MIC (Listeria monocytogenes): 7.87 µM (≈ 16 µg/mL)
- MIC [32]: 3.93 µM (≈ 8 µg/mL)
- MIC [33]: 9.2 µM (≈ 18.7 µg/mL)
- MIC [34]: 1.97 µM (≈ 4 µg/mL)
- MIC (Staphylococcus aureus): 3.93 µM (≈ 8 µg/mL)
SMILES: CC(C)[C@H](N)C(=O)N[C@@H](CCCCN)C(=O)N[C@@H](CCCN=C(N)N)C(=O)N[C@@H](Cc1ccccc1)C(=O)N[C@@H](CCCCN)C(=O)N[C@@H](CCCCN)C(=O)N[C@@H](Cc1ccccc1)C(=O)N[C@@H](Cc1ccccc1)C(=O)N[C@@H](CCCN=C(N)N)C(=O)N[C@@H](CCCCN)C(=O)N[C@@H](Cc1ccccc1)C(=O)N[C@@H](CCCCN)C(=O)N[C@@H](CCCCN)C(=O)N[C@@H](Cc1ccccc1)C(=O)N[C@H](C(N)=O)C(C)C [VKRFKKFFRKFKKFV]
